Consider three molecules from publication PMC9530881 (Cancer Science, 2022).

For data set [1] the following is noted: men who received 100 mg in a clinical trial; ref not given; cited from earlier work.
Data set [2] has as its system cancer cachexia model mice (LLC cells). Put plainly: LLC cancer cachexia model mice, MID-35 and/or anamorelin. Conditions: MID-35 i.m. and/or anamorelin p.o.; 22 days after LLC transplantation; Figure 6B. In kind it is in vivo, C57BL/6J mice.
The test system of another data set is ghrelin receptor. The conditions noted are these: ref [8]; cited from earlier work.
For another data set, the system named is cancer cachexia patients. Conditions: cited from earlier work.
Another data set relates to GDF‐11. In kind it is cell-based. Conditions: HepG2, (SBE)4-luc; GDF-11 10 ng/ml, 8 h; MID-35 3 μM or SB-431542 10 μM, 1 h pretreatment; n = 3.
The test system of data set [3] is MSTN. Put plainly: Smad2/3 nuclear localization induced by MSTN in C2C12 cells. In kind it is cell-based. Conditions: MID-35 3 μM or SB-431542 10 μM preincubated 1 h with MSTN 10 ng/ml.
The subject of another data set is ALK7. Conditions: ref [26]; cited from earlier work.
The next data set concerns TGF‐β. The class given is cell-based. The conditions noted are these: HepG2, (SBE)4-luc; TGF-β 5 ng/ml, 8 h; MID-35 3 μM or SB-431542 10 μM, 1 h pretreatment; n = 3.
In the next data set the test system is ALK5. The conditions noted are these: ref [26]; cited from earlier work.
Data set [4] has as its system MSTN. The class given is cell-based. The conditions noted are these: HepG2, (SBE)4-luc; MSTN 10 ng/ml, 8 h; MID-35 3 μM or SB-431542 10 μM, 1 h pretreatment; n = 3.
For a further data set, the system named is ALK4. The conditions noted are these: ref [26]; cited from earlier work.
For a further data set, the system named is vascular function. The conditions noted are these: via binding to BMP9 and BMP10; ref [36]; cited from earlier work.
The mark [5] stands for this setting: patients with non-small-cell lung cancer, ref [9], [10], [11].

As to `CN(C)N(C)C(=O)[C@@]1(Cc2ccccc2)CCCN(C(=O)[C@@H](Cc2c[nH]c3ccccc23)NC(=O)C(C)(C)N)C1` [anamorelin], the “plasma Cmax average” value in data set [1] is 707 ± 307 ng/mL. For the same molecule, the “gastrocnemius weight per body weight without tumor” value in [2] is listed as “increased”. Also, the ghrelin receptor activity result in the data set with ghrelin receptor is recorded as “ghrelin receptor agonist”. The lean body mass result with cancer cachexia patients (clinical trial, cancer cachexia patients, ref not given) is listed as “increased lean body mass”. The appetite result in the data set on cancer cachexia patients (patients with cancer cachexia, oral, ref [8]) is “augments appetite”. Besides, in the data set on cancer cachexia patients (setting [5]), the QOL entry is reported as “improvement of QOL” and the weight gain result is recorded as “contribute to weight gain”.
With `NC(=O)c1ccc(-c2nc(-c3ccc4c(c3)OCO4)c(-c3ccccn3)[nH]2)cc1` [SB‐431542], the “inhibition of GDF-11-induced reporter activity” value in the data set on GDF‐11 is listed as “suppressed”. In the data set with MSTN [3], the Smad2 nuclear accumulation entry is on record as “completely blocked”. In addition, the ALK7 kinase inhibition entry in the data set on ALK7 is “known kinase inhibitor”. Moreover, the “inhibition of TGF-β-induced reporter activity” value in the data set with TGF‐β is “suppressed”. In the data set with ALK5, the ALK5 kinase inhibition result was “known kinase inhibitor”. For the same molecule, the “inhibition of MSTN-induced transcriptional activity” value in the data set with MSTN [4] was “suppressed”. Besides, the ALK4 kinase inhibition entry in the data set with ALK4 was “known kinase inhibitor”.

B1: ActRIIB: activin receptor type IIB; binds to both BMP9 and BMP10 (protein, UniProt Q13705 19-512, looked up)
Activin receptor type-2B: SGRGEAETRECIYYNANWELERTNQSGLERCEGEQDKRLHCYASWRNSSGTIELVKKGCWLDDFNCYDRQECVATEENPQVYFCCCEGNFCNERFTHLPEAGGPEVTYEPPPTAPTLLTVLAYSLLPIGGLSLIVLLAFWMYRHRKPPYGHVDIHEDPGPPPPSPLVGLKPLQLLEIKARGRFGCVWKAQLMNDFVAVKIFPLQDKQSWQSEREIFSTPGMKHENLLQFIAAEKRGSNLEVELWLITAFHDKGSLTDYLKGNIITWNELCHVAETMSRGLSYLHEDVPWCRGEGHKPSIAHRDFKSKNVLLKSDLTAVLADFGLAVRFEPGKPPGDTHGQVGTRRYMAPEVLEGAINFQRDAFLRIDMYAMGLVLWELVSRCKAADGPVDEYMLPFEEEIGQHPSLEELQEVVVHKKMRPTIKDHWLKHPGLAQLCVTIEECWDHDAEARLSAGCVEERVSLIRRSVNGTTSDCLVSLVTSVTNVDLPPKESSI
B1: the vascular side-effects entry with vascular function was “vascular side‐effects”.
